In ChEMBL document CHEMBL6114972, “Proteolysis targeting chimera of BI-2536 induces potent dual degradation of PLK1 and BET proteins” (Bioorg Med Chem, 2025):
The source made the active and inactive calls. The calls are words filed in the database; no cut-off is given here.

Columns and labels:
[1] = target: T1, Protein cereblon/Bromodomain-containing protein 4 (Homo sapiens, UniProt O60885+Q96SW2); assay: Protac activity at CRBN/BRD4 in human 22Rv1 cells assessed as BRD4 degradation measured after 36 hrs by Western blot analysis relative to control; assay type: cell-based
T1 sequence (Q96SW2 whole entry, looked up, other chains not shown): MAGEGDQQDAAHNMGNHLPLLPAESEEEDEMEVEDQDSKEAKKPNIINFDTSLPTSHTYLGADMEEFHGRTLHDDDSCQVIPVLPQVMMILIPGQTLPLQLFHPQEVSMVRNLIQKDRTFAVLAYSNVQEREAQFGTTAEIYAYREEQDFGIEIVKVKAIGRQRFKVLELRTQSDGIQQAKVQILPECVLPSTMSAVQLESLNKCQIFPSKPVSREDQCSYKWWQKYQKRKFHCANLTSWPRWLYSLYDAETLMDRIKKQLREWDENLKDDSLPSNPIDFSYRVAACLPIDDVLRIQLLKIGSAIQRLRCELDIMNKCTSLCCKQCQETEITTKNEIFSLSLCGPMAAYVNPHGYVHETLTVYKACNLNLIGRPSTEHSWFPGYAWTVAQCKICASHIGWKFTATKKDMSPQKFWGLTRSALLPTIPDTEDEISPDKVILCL

[2] = target: T1, Protein cereblon/Bromodomain-containing protein 4; assay: Protac activity at CRBN/BRD4 in human K562 cells assessed as BRD4 degradation at 10 nM measured after 36 hrs by Western blot analysis; assay type: cell-based
[3] = target: T2, Protein cereblon/Bromodomain-containing protein 3 (Homo sapiens, UniProt Q15059+Q96SW2); assay: Protac activity at CRBN/BRD3 in human HeLa cells assessed as BRD3 degradation measured after 36 hrs by Western blot analysis relative to control; assay type: cell-based
Target sequence in this assay (Q15059 2-726 limits assumed): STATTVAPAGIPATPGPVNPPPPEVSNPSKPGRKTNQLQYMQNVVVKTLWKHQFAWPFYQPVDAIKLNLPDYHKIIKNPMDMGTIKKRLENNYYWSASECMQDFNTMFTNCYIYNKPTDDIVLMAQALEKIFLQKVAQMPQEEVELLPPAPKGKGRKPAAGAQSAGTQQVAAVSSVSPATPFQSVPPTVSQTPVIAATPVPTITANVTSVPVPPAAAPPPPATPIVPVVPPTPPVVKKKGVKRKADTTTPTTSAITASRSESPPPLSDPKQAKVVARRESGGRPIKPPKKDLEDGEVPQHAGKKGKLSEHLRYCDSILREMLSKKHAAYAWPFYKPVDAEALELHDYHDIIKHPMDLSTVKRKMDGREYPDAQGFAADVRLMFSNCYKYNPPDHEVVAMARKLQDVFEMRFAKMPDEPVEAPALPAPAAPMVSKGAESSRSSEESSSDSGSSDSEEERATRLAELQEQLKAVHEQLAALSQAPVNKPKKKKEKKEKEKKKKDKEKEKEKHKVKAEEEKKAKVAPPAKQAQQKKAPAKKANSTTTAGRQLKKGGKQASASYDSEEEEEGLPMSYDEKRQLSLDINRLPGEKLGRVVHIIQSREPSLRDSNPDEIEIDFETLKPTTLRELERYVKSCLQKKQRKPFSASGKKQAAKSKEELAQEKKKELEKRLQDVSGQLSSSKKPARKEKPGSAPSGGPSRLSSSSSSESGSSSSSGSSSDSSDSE
Target sequence in this assay (Q96SW2 whole entry partner): as the sequence (Q96SW2 whole entry, looked up, other chains not shown) above

[4] = target: T3, Protein cereblon/Bromodomain-containing protein 2 (Homo sapiens, UniProt P25440+Q96SW2); assay: Protac activity at CRBN/BRD2 in human 22Rv1 cells assessed as BRD2 degradation measured after 36 hrs by Western blot analysis; assay type: cell-based
[5] = target: T1, Protein cereblon/Bromodomain-containing protein 4; assay: Protac activity at CRBN/BRD4 in human HeLa cells assessed as BRD4 degradation at 10 nM measured after 36 hrs by Western blot analysis; assay type: cell-based
[6] = target: T1, Protein cereblon/Bromodomain-containing protein 4; assay: Protac activity at CRBN/BRD4 in human HeLa cells assessed as BRD4 degradation measured after 36 hrs by Western blot analysis; assay type: cell-based
HeLa = assay: Cytotoxicity against human HeLa cells assessed as reduction in cell viability measured after 3 days by CCK-8 assay; assay type: functional, cell-based; conditions: 72 h
[7] = target: T1, Protein cereblon/Bromodomain-containing protein 4; assay: Protac activity at CRBN/BRD4 in human 22Rv1 cells assessed as BRD4 degradation at 50 nM measured after 2 hrs by Western blot analysis; assay type: cell-based
[8] = target: T4, Protein cereblon/Serine/threonine-protein kinase PLK1 (Homo sapiens, UniProt P53350+Q96SW2); assay: Protac activity at CRBN/PLK1 in human 22Rv1 cells assessed as PLK1 degradation measured after 36 hrs by Western blot analysis relative to control; assay type: cell-based
Target sequence in this assay (P53350 2-603 limits assumed): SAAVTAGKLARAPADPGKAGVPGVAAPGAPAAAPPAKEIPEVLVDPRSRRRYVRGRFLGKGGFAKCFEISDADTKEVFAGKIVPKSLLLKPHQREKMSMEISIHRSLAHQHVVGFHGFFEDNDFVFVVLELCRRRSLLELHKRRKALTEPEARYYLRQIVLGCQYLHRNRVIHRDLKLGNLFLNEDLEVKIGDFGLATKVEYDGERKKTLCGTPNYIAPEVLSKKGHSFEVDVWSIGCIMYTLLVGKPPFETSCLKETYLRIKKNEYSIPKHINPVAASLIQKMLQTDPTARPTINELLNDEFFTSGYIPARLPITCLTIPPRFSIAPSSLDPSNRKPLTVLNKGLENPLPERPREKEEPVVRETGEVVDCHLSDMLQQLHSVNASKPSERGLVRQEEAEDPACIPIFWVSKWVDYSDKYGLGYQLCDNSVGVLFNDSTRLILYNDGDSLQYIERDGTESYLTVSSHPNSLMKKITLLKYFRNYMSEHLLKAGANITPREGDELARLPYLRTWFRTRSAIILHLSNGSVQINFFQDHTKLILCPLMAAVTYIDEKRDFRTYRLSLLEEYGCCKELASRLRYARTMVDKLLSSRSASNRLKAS
Target sequence in this assay (Q96SW2 whole entry partner): as the sequence (Q96SW2 whole entry, looked up, other chains not shown) above

[9] = target: T2, Protein cereblon/Bromodomain-containing protein 3; assay: Protac activity at CRBN/BRD3 in human 22Rv1 cells assessed as BRD3 degradation measured after 36 hrs by Western blot analysis relative to control; assay type: cell-based
Target sequence in this assay (Q15059 2-726 limits assumed): as the sequence (Q15059 2-726 limits assumed) above
Target sequence in this assay (Q96SW2 whole entry partner): as the sequence (Q96SW2 whole entry, looked up, other chains not shown) above

CWR22R [10] = assay: Down regulation of Bcl-2 mRNA expression in human 22Rv1 cells at 20 to 100 nM measured after 36 hrs by RT-qPCR analysis; assay type: functional, cell-based; conditions: dose 20-100 nM
[11] = target: T1, Protein cereblon/Bromodomain-containing protein 4; assay: Protac activity at CRBN/BRD4 in human HeLa cells assessed as BRD4 degradation measured after 36 hrs by Western blot analysis relative to control; assay type: cell-based
[12] = target: T4, Protein cereblon/Serine/threonine-protein kinase PLK1; assay: Protac activity at CRBN/PLK1 in human HeLa cells assessed as PLK1 degradation at 200 nM measured after 24 hrs by Western blot analysis; assay type: cell-based
Target sequence in this assay (P53350 2-603 limits assumed): as the sequence (P53350 2-603 limits assumed) above
Target sequence in this assay (Q96SW2 whole entry partner): as the sequence (Q96SW2 whole entry, looked up, other chains not shown) above

[13] = target: T2, Protein cereblon/Bromodomain-containing protein 3; assay: Protac activity at CRBN/BRD3 in human HeLa cells assessed as BRD3 degradation measured after 36 hrs by Western blot analysis; assay type: cell-based
[14] = target: T4, Protein cereblon/Serine/threonine-protein kinase PLK1; assay: Protac activity at CRBN/PLK1 in human HeLa cells assessed as PLK1 degradation at 500 nM measured after 12 hrs by Western blot analysis; assay type: cell-based
Target sequence in this assay (P53350 2-603 limits assumed): as the sequence (P53350 2-603 limits assumed) above
Target sequence in this assay (Q96SW2 whole entry partner): as the sequence (Q96SW2 whole entry, looked up, other chains not shown) above

[15] = target: T3, Protein cereblon/Bromodomain-containing protein 2; assay: Protac activity at CRBN/BRD2 in human HeLa cells assessed as BRD2 degradation measured after 36 hrs by Western blot analysis relative to control; assay type: cell-based
Target sequence in this assay (P25440 whole entry, looked up): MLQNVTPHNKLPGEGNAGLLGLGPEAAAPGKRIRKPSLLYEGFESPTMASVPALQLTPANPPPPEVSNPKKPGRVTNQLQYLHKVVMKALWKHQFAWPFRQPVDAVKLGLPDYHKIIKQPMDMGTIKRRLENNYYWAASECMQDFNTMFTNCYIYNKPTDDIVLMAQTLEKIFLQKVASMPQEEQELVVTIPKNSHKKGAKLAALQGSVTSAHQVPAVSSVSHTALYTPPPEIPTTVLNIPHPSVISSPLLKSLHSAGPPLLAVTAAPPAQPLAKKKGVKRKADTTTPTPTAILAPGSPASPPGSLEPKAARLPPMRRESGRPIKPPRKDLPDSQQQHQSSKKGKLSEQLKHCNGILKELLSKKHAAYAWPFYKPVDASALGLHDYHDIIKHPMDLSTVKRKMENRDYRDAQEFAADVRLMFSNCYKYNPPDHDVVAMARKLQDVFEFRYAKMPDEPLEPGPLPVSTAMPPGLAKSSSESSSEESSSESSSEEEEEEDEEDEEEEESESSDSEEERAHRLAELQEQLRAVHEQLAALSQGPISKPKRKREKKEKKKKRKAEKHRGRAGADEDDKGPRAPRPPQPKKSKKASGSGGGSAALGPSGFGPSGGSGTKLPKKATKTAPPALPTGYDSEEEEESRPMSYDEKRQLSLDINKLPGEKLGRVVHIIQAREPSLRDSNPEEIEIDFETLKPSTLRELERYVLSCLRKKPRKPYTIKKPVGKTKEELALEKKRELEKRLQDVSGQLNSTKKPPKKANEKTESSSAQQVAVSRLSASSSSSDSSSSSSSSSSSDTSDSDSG
Target sequence in this assay (Q96SW2 whole entry, looked up): as the sequence (Q96SW2 whole entry, looked up, other chains not shown) above

[16] = target: T4, Protein cereblon/Serine/threonine-protein kinase PLK1; assay: Protac activity at CRBN/PLK1 in human 22Rv1 cells assessed as PLK1 degradation measured after 36 hrs by Western blot analysis; assay type: cell-based
[17] = target: T4, Protein cereblon/Serine/threonine-protein kinase PLK1; assay: Protac activity at CRBN/PLK1 in human HeLa cells assessed as PLK1 degradation at 10 to 500 nM measured after 36 hrs by Western blot analysis; assay type: cell-based; conditions: dose 10-500 nM
Target sequence in this assay (P53350 2-603 limits assumed): as the sequence (P53350 2-603 limits assumed) above
Target sequence in this assay (Q96SW2 whole entry partner): as the sequence (Q96SW2 whole entry, looked up, other chains not shown) above

[18] = target: T1, Protein cereblon/Bromodomain-containing protein 4; assay: Protac activity at CRBN/BRD4 in human 22Rv1 cells assessed as BRD4 degradation at 50 nM measured after 4 hrs by Western blot analysis; assay type: cell-based
[19] = target: T1, Protein cereblon/Bromodomain-containing protein 4; assay: Protac activity at CRBN/BRD4 in human HeLa cells assessed as BRD4 degradation at 500 nM measured after 12 hrs by Western blot analysis; assay type: cell-based
MDA-MB-231 = assay: Cytotoxicity against human MDA-MB-231 cells assessed as reduction in cell viability measured after 3 days by CCK-8 assay; assay type: functional, cell-based; conditions: MDA-MB-231, 72 h
[20] = target: T1, Protein cereblon/Bromodomain-containing protein 4; assay: Protac activity at CRBN/BRD4 in human MDA-MB-231 cells assessed as BRD4 degradation at 10 nM measured after 36 hrs by Western blot analysis; assay type: cell-based
[21] = target: T1, Protein cereblon/Bromodomain-containing protein 4; assay: Protac activity at CRBN/BRD4 in human 22Rv1 cells assessed as down regulation of MYC gene expression at 20 to 100 nM measured after 36 hrs by RT-qPCR analysis; assay type: cell-based; conditions: dose 20-100 nM
[22] = target: T1, Protein cereblon/Bromodomain-containing protein 4; assay: Protac activity at CRBN/BRD4 in human 22Rv1 cells assessed as BRD4 degradation measured after 36 hrs by Western blot analysis; assay type: cell-based
CWR22R [23] = assay: Cytotoxicity against human 22Rv1 cells assessed as reduction in cell viability measured after 3 days by CCK-8 assay; assay type: functional, cell-based; conditions: 22Rv1, 72 h
[24] = target: T4, Protein cereblon/Serine/threonine-protein kinase PLK1; assay: Protac activity at CRBN/PLK1 in human HeLa cells assessed as PLK1 degradation at 10 nM measured after 36 hrs by Western blot analysis; assay type: cell-based
Target sequence in this assay (P53350 2-603 limits assumed): as the sequence (P53350 2-603 limits assumed) above
Target sequence in this assay (Q96SW2 whole entry partner): as the sequence (Q96SW2 whole entry, looked up, other chains not shown) above

[25] = target: T4, Protein cereblon/Serine/threonine-protein kinase PLK1; assay: Protac activity at CRBN/PLK1 in human 22Rv1 cells assessed as PLK1 degradation at 10 to 500 nM measured after 36 hrs by Western blot analysis; assay type: cell-based; conditions: dose 10-500 nM
Target sequence in this assay (P53350 2-603 limits assumed): as the sequence (P53350 2-603 limits assumed) above
Target sequence in this assay (Q96SW2 whole entry partner): as the sequence (Q96SW2 whole entry, looked up, other chains not shown) above

K562 = assay: Cytotoxicity against human K562 cells assessed as reduction in cell viability measured after 3 days by CCK-8 assay; assay type: functional, cell-based; conditions: K562, 72 h
[26] = target: T3, Protein cereblon/Bromodomain-containing protein 2; assay: Protac activity at CRBN/BRD2 in human HeLa cells assessed as BRD2 degradation at 3 nM measured after 36 hrs by Western blot analysis; assay type: cell-based
Target sequence in this assay (P25440 whole entry, looked up): as the sequence (P25440 whole entry, looked up) above
Target sequence in this assay (Q96SW2 whole entry, looked up): as the sequence (Q96SW2 whole entry, looked up, other chains not shown) above

[27] = target: T3, Protein cereblon/Bromodomain-containing protein 2; assay: Protac activity at CRBN/BRD2 in human HeLa cells assessed as BRD2 degradation measured after 36 hrs by Western blot analysis; assay type: cell-based
CWR22R [28] = assay: Down regulation of XIAP mRNA expression in human 22Rv1 cells at 20 to 100 nM measured after 36 hrs by RT-qPCR analysis; assay type: functional, cell-based; conditions: dose 20-100 nM
CWR22R [29] = assay: Antiproliferative activity against human 22Rv1 cells assessed as reduction in cell viability up to 100000 nM incubated for 24 hrs prior to compound washout measured after 1 week by crystal violet staining based assay; assay type: functional
[30] = target: T4, Protein cereblon/Serine/threonine-protein kinase PLK1; assay: Protac activity at CRBN/PLK1 in human HeLa cells assessed as PLK1 degradation measured after 36 hrs by Western blot analysis relative to control; assay type: cell-based
[31] = target: T4, Protein cereblon/Serine/threonine-protein kinase PLK1; assay: Protac activity at CRBN/PLK1 in human 22Rv1 cells assessed as PLK1 degradation at 2 uM measured after 12 to 24 hrs by Western blot analysis; assay type: cell-based; conditions: time 12-24 hrs
[32] = target: T4, Protein cereblon/Serine/threonine-protein kinase PLK1; assay: Protac activity at CRBN/PLK1 in human MDA-MB-231 cells assessed as PLK1 degradation at 10 nM measured after 36 hrs by Western blot analysis; assay type: cell-based
[33] = target: T4, Protein cereblon/Serine/threonine-protein kinase PLK1; assay: Protac activity at CRBN/PLK1 in human K562 cells assessed as PLK1 degradation at 10 nM measured after 36 hrs by Western blot analysis; assay type: cell-based
[34] = target: T4, Protein cereblon/Serine/threonine-protein kinase PLK1; assay: Protac activity at CRBN/PLK1 in human HeLa cells assessed as PLK1 degradation at 500 nM measured after 36 hrs by Western blot analysis; assay type: cell-based
[35] = target: T2, Protein cereblon/Bromodomain-containing protein 3; assay: Protac activity at CRBN/BRD3 in human HeLa cells assessed as BRD3 degradation at 3 nM measured after 36 hrs by Western blot analysis; assay type: cell-based
Target sequence in this assay (Q15059 2-726 limits assumed): as the sequence (Q15059 2-726 limits assumed) above
Target sequence in this assay (Q96SW2 whole entry partner): as the sequence (Q96SW2 whole entry, looked up, other chains not shown) above

[36] = target: T1, Protein cereblon/Bromodomain-containing protein 4; assay: Protac activity at CRBN/BRD4 in human HeLa cells assessed as BRD4 degradation at 20 nM measured after 24 hrs by Western blot analysis; assay type: cell-based
[37] = target: T1, Protein cereblon/Bromodomain-containing protein 4; assay: Protac activity at CRBN/BRD4 in human HeLa cells assessed as BRD4 degradation at 3 nM measured after 36 hrs by Western blot analysis; assay type: cell-based
[38] = target: T3, Protein cereblon/Bromodomain-containing protein 2; assay: Protac activity at CRBN/BRD2 in human 22Rv1 cells assessed as BRD2 degradation measured after 36 hrs by Western blot analysis relative to control; assay type: cell-based
Target sequence in this assay (P25440 whole entry, looked up): as the sequence (P25440 whole entry, looked up) above
Target sequence in this assay (Q96SW2 whole entry, looked up): as the sequence (Q96SW2 whole entry, looked up, other chains not shown) above

[39] = target: T4, Protein cereblon/Serine/threonine-protein kinase PLK1; assay: Protac activity at CRBN/PLK1 in human 22Rv1 cells assessed as PLK1 degradation at 50 nM measured after 36 hrs by Western blot analysis; assay type: cell-based
[40] = target: T4, Protein cereblon/Serine/threonine-protein kinase PLK1; assay: Protac activity at CRBN/PLK1 in human HeLa cells assessed as PLK1 degradation measured after 36 hrs by Western blot analysis; assay type: cell-based
CWR22R [41] = assay: Effect on P21 mRNA expression in human 22Rv1 cells at 20 to 100 nM measured after 36 hrs by RT-qPCR analysis; assay type: functional, cell-based; conditions: dose 20-100 nM
CWR22R [42] = assay: Down regulation of PRDM1 mRNA expression in human 22Rv1 cells at 20 to 100 nM measured after 36 hrs by RT-qPCR analysis; assay type: functional, cell-based; conditions: dose 20-100 nM
[43] = target: T4, Protein cereblon/Serine/threonine-protein kinase PLK1; assay: Protac activity at CRBN/PLK1 in human 22Rv1 cells assessed as PLK1 degradation at 50 nM measured after 24 hrs by Western blot analysis; assay type: cell-based
[44] = target: T2, Protein cereblon/Bromodomain-containing protein 3; assay: Protac activity at CRBN/BRD3 in human 22Rv1 cells assessed as BRD3 degradation measured after 36 hrs by Western blot analysis; assay type: cell-based

Compound: CC[C@@H]1C(=O)N(C)c2cnc(Nc3ccc(C(=O)NC4CCN(CCCCCCCC(=O)Nc5cccc6c5C(=O)N(C5CCC(=O)NC5=O)C6=O)CC4)cc3OC)nc2N1C1CCCC1 (some centres not stated)
- Activity [1]: 96.5%
- Activity [2]: Active
- Activity [3]: 93.3%
- DC50 [4]: 1.63 nM
- Activity [5]: Active
- DC50 [6]: 1.03 nM
- IC50 (HeLa): 44 nM
- Activity [7]: Active; Effectively Reduced The Protein Level
- Activity [8]: 78%
- Activity [9]: 89.9%
- Activity (CWR22R [10]): Active
- Activity [11]: 93.4%
- Activity [12]: Active; Moderate Effect Observed
- DC50 [13]: 1.74 nM
- Activity [14]: 28%
- Activity [15]: 82.8%
- DC50 [16]: 4.68 nM
- Activity [17]: Active; Higher Degradation Observed At 36 Hrs
- Activity [18]: Active; Near-Complete Depletion Of Brd4 Observed
- Activity [19]: 95%
- IC50 (MDA-MB-231): 274 nM
- Activity [20]: Active
- Activity [21]: Active; Nearly Complete Down Regulation Observed At 20 Nm
- DC50 [22]: 1.56 nM
- IC50 (CWR22R [23]): 45 nM
- Activity [24]: Active
- Activity [25]: Active; Higher Degradation Observed At 36 Hrs
- IC50 (K562): 52 nM
- Activity [26]: Active
- DC50 [27]: 6.45 nM
- Activity (CWR22R [28]): Active
- Activity (CWR22R [29]): Active; Antiproliferative Effect Was Enhanced Even After 1 Week
- Activity [30]: 78.6%
- Activity [31]: Active
- Activity [32]: Active
- Activity [33]: Active
- Activity [34]: 92%
- Activity [35]: Active
- Activity [36]: Active; Demonstrated Most Potent Efficacy
- Activity [37]: Active
- Activity [38]: 91.5%
- Activity [39]: Active; Profound Degradation Observed
- DC50 [40]: 1.64 nM
- Activity (CWR22R [41]): inactive
- Activity (CWR22R [42]): Active
- Activity [43]: Not active; No Significant Effect Observed
- DC50 [44]: 9.45 nM
